One data set concerns the target T1, Aurora-2 (Homo sapiens, UniProt O14965).
T1 sequence (O14965 1-403): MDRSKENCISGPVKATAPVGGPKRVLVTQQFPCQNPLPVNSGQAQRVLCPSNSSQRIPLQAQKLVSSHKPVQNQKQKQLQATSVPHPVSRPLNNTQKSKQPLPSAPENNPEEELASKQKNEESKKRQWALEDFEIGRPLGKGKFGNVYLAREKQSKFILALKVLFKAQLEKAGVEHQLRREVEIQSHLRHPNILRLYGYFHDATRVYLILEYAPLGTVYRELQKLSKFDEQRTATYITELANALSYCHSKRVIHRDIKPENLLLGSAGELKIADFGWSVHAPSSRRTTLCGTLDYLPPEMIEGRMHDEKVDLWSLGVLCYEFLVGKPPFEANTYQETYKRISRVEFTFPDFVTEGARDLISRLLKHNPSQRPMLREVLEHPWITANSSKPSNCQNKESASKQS
Nature of the data set: Ki determination for the inhibition of Aurora-2 (coupled enzyme assay). To be noted: 70 nM Aurora-2, 30° C. Format: biochemical. Here is the method: Compounds were screened in the following manner for their ability to inhibit Aurora-2 using a standard coupled enzyme assay (Fox et al (1998) Protein Sci 7, 2249).
To an assay stock buffer solution containing 0.1M HEPES 7.5, 10 mM MgCl2, 1 mM DTT, 25 mM NaCl, 2.5 mM phosphoenolpyruvate, […], 30 mg/ml pyruvate kinase, 10 mg/ml lactate dehydrogenase, […], and 800 μM peptide (LRRASLG, American Peptide, Sunnyvale, Calif.) was added a DMSO solution of a compound of the present invention to a final concentration of 30 μM. The resulting mixture was incubated at 30° C. for 10 min. The reaction was initiated by the addition of 10 μL of Aurora-2 stock solution to give a final concentration of 70 nM in the assay. The rates of reaction were obtained by monitoring absorbance at 340 nm over a 5 minute read time at 30° C. using a BioRad Ultramark plate reader (Hercules, Calif.). The Ki values were determined from the rate data as a function of inhibitor concentration.

The target in a further data set is T2, GSK-3β (AA 1-420) (Homo sapiens, UniProt P49841).
T2 construct: GSK-3β (AA 1-420)
The experiment in a line: Ki determination for the inhibition of GSK-3 (coupled enzyme system). Type of data set: biochemical. To be noted: 20 μM ATP, 300 μM peptide, 20 nM GSK-3β, 30° C. Here is the method: Compounds were screened for their ability to inhibit GSK-3β (AA 1-420) activity using a standard coupled enzyme system (Fox et al. (1998) Protein Sci. 7, 2249). Reactions were carried out in a solution containing 100 mM HEPES (pH 7.5), 10 mM MgCl2, 25 mM NaCl, 300 μM NADH, 1 mM DTT and 1.5% DMSO. Final substrate concentrations in the assay were 20 μM ATP (Sigma Chemicals, St Louis, Mo.) and 300 μM peptide (HSSPHQS(PO3H2)EDEEE, American Peptide, Sunnyvale, Calif.). Reactions were carried out at 30° C. and 20 nM GSK-3β. Final concentrations of the components of the coupled enzyme system were 2.5 mM phosphoenolpyruvate, 300 μM NADH, 30 μg/ml pyruvate kinase and 10 μg/ml lactate dehydrogenase.
An assay stock buffer solution was prepared containing all of the reagents listed above with the exception of ATP and the test compound of interest. The assay stock buffer solution (175 μl) was incubated in a 96 well plate with 5 μl of the test compound of interest at final concentrations spanning 0.002 μM to 30 μM at 30° C. for 10 min. Typically, a 12 point titration was conducted by preparing serial dilutions (from 10 mM compound stocks) with DMSO of the test compounds in daughter plates. […] Rates of reaction were obtained using a Molecular Devices Spectramax plate reader (Sunnyvale, Calif.) over 10 min at 30° C. The Ki values were determined from the rate data as a function of inhibitor concentration.

T2 sequence (P49841 whole entry, the tested form may be a part): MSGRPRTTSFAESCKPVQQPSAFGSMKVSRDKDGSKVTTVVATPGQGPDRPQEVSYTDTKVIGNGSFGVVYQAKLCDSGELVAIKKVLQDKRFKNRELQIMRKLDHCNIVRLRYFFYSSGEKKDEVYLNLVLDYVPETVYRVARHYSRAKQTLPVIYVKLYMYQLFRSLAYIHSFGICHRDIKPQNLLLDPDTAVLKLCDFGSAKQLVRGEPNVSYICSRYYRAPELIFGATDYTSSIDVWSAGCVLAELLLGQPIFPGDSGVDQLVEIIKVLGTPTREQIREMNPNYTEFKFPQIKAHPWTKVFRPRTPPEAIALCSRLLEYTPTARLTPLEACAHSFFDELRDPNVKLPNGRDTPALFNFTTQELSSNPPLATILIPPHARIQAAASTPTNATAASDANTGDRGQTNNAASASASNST

A word on the Ki: it is the equilibrium dissociation constant of an inhibitor or competing ligand from its target. Read a low Ki as tighter binding. In general, melting point refers to the temperature, or range, at which the solid turns liquid. For the compound `Cc1cc(Nc2nc(N3CCC(C)CC3)nc3nc[nH]c23)n[nH]1` [IV-33, [2-(4-Methylpiperidin-1-yl)-purin-4-yl]-(S-methyl-2H-pyrazol-3-yl)-amine], the melting point was more than 300 °C. The Ki on Aurora-2 was in the range of 100 to 1000 nM. Moreover, the Ki at GSK-3β (AA 1-420) was in the range of 100 to 1000 nM.
Compound `COC(=O)c1cc(Nc2ccnc(N3CCCCC3)n2)n[nH]1` [IV-8] yielded an inhibitory constant (Ki) at GSK-3β (AA 1-420) of 100 to 1000 nM.

The values are drawn from patent US6613776B2, “Pyrazole compounds useful as protein kinase inhibitors” (Vertex Pharmaceuticals Incorporated, priority 2000, dated 2003).
